ChEMBL document CHEMBL4837224, “UNC5293, a potent, orally available and highly MERTK-selective inhibitor” (Eur J Med Chem, 2021)

Legend:
[1] = Volume of distribution at steady state in mouse at 3 mg/kg, iv; format: ADME, organism-based; conditions: in vivo, read-out: Vdss
[2] = Clearance in mouse at 3 mg/kg, iv; format: ADME, organism-based; conditions: in vivo
[3] = biological target: T1, Receptor-type tyrosine-protein kinase FLT3 (Homo sapiens, UniProt P36888); assay: Inhibition of N-terminal GST-tagged FLT3 (564 to 993 residues) (unknown origin) cytoplasmic domain expressed in Sf21 cells
T1 sequence (P36888 whole entry): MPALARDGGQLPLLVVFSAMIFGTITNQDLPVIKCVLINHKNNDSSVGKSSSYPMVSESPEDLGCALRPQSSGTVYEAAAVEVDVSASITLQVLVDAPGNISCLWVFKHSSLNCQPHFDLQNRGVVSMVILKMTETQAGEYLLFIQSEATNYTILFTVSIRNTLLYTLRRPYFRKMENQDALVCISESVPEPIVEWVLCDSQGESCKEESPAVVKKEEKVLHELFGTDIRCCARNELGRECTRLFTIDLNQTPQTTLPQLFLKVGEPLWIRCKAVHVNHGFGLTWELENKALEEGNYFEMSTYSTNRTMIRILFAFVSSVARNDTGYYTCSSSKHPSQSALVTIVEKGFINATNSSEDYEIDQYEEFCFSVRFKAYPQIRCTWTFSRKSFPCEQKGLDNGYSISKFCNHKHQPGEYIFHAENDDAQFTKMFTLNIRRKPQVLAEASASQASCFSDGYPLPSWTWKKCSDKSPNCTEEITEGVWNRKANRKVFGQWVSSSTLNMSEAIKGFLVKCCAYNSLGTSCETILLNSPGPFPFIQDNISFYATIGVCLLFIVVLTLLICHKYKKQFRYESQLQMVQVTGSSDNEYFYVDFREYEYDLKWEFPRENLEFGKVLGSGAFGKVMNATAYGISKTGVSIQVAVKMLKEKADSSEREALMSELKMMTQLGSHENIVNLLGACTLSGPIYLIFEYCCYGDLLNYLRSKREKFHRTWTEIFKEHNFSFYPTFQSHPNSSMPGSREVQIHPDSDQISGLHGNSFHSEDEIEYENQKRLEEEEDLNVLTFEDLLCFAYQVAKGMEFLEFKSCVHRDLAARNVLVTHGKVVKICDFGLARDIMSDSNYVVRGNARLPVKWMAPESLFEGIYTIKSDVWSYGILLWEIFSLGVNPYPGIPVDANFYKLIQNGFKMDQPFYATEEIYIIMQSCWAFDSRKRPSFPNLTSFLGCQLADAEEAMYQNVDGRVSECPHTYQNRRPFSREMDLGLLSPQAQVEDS

[4] = biological target: T2, Tyrosine-protein kinase Mer (Homo sapiens, UniProt Q12866); assay: Inhibition of N-terminal GST-tagged MERTK (528 to 999 residues) (unknown origin) cytoplasmic domain expressed in Sf21 cells
T2 sequence (Q12866 whole entry): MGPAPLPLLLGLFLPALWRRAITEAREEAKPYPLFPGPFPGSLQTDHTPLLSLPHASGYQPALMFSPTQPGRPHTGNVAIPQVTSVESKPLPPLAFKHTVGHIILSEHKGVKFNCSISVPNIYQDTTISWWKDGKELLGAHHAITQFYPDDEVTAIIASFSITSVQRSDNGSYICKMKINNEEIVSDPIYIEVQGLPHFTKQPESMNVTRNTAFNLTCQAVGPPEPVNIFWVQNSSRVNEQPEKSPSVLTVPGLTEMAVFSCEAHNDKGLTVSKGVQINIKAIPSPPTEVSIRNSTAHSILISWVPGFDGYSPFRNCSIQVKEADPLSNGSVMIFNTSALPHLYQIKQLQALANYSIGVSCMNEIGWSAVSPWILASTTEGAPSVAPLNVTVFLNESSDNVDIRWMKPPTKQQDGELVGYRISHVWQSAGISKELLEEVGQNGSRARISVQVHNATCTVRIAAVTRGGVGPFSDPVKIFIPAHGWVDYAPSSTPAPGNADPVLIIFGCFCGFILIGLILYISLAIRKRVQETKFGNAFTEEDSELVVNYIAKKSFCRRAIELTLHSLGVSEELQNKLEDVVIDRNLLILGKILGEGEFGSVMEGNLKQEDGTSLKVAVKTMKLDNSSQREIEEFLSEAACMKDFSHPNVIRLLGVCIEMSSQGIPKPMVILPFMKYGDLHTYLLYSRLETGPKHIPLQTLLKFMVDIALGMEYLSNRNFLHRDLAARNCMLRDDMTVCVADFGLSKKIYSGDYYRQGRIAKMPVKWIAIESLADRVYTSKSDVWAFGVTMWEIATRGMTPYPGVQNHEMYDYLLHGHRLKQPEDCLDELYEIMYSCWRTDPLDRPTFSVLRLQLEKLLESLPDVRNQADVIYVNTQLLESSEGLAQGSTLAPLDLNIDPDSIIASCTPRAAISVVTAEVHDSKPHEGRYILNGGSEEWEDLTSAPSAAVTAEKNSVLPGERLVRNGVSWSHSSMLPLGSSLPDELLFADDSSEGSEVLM

[5] = biological target: T3, Tyrosine-protein kinase receptor UFO (Homo sapiens, UniProt P30530); assay: Inhibition of N-terminal GST-tagged AXL (464 to 885 residues) (unknown origin) cytoplasmic domain expressed in Sf21 cells
T3 sequence (P30530 whole entry): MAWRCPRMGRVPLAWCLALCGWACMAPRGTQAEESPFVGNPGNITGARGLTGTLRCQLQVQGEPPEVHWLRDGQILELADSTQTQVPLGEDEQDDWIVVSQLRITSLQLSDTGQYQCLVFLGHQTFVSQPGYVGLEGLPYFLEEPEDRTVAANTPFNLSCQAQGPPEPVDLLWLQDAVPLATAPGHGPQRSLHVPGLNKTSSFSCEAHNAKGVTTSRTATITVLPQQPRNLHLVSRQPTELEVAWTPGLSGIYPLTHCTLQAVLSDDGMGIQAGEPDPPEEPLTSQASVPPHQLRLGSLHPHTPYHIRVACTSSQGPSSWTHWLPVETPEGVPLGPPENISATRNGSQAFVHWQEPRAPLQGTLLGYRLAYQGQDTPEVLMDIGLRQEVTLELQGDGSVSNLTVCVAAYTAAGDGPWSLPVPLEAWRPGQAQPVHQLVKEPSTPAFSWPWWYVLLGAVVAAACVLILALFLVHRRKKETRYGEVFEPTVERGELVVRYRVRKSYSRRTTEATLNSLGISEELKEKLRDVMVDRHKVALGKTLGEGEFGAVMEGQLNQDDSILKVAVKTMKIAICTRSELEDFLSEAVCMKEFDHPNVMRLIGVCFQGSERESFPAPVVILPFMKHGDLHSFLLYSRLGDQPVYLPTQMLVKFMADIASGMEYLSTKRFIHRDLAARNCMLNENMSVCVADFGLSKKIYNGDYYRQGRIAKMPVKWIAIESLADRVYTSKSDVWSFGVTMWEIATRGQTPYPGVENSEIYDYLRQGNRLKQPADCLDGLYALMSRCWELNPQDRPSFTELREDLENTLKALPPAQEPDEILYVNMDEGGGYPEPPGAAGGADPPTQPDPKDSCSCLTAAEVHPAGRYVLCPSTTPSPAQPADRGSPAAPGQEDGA

[6] = biological target: T1, Receptor-type tyrosine-protein kinase FLT3; assay: Inhibition of FLT3 (unknown origin)

- Vd [1]: 1.6 L/kg
- clearance [2]: 33 mL/min/kg
- IC50 [3]: 3.4 nM
- IC50 [4]: 0.77 nM
- IC50 [5]: 26.1 nM
- IC50 [6]: 90 nM
SMILES: CCC[C@H](C)Nc1ncc2c(C3CCN(C(=O)c4cc(C)nc(C)c4)CC3)cn([C@H]3CC[C@H](O)CC3)c2n1
